Test results: ChEMBL document CHEMBL5143733, “Discovery of (E)-3-(3-((2-Cyano-4'-dimethylaminobiphenyl-4-ylmethyl)cyclohexanecarbonylamino)-5-fluorophenyl)acrylic Acid Methyl Ester, an Intestine-Specific, FXR Partial Agonist for the Treatment of Nonalcoholic Steatohepatitis” (J Med Chem, 2022)
Activity calls are given as the source filed them. The calls are words filed in the database; no cut-off is given here.

Key:
[1] = target: Retinoic acid receptor RXR-alpha (Homo sapiens) (UniProt P19793); experiment: Agonist activity at human RXR-alpha expressed in U2OS cells assessed as maximum relative efficacy at 100 uM by PathHunter assay relative to 9-cis-retinoic acid; assay type: cell-based
Retinoic acid receptor RXR-alpha (Homo sapiens), sequence (P19793 whole entry): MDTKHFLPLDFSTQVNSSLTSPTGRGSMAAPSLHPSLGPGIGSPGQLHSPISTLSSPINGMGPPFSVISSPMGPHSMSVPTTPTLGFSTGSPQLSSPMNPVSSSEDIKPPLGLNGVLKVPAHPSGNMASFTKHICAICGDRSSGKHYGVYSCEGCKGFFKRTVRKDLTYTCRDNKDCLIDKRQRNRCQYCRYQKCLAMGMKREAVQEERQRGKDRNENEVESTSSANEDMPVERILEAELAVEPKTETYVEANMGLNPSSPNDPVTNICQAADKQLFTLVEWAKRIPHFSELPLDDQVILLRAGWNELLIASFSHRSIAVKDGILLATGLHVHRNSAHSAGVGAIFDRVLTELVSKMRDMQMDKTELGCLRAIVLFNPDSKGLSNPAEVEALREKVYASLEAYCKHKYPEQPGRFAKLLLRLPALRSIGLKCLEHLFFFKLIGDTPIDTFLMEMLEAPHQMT

[2] = target: Retinoic acid receptor alpha (Homo sapiens) (UniProt P10276); experiment: Agonist activity at human RAR-alpha expressed in CHO-K1 cells assessed as maximum relative efficacy at 100 uM by PathHunter assay relative to 9-cis-retinoic acid; assay type: cell-based
[3] = target: Progesterone receptor (Homo sapiens) (UniProt P06401); experiment: Agonist activity at human PR-beta expressed in U2OS cells assessed as maximum relative efficacy at 100 uM by PathHunter assay relative to norgestrel; assay type: cell-based
Progesterone receptor (Homo sapiens), sequence (P06401 whole entry): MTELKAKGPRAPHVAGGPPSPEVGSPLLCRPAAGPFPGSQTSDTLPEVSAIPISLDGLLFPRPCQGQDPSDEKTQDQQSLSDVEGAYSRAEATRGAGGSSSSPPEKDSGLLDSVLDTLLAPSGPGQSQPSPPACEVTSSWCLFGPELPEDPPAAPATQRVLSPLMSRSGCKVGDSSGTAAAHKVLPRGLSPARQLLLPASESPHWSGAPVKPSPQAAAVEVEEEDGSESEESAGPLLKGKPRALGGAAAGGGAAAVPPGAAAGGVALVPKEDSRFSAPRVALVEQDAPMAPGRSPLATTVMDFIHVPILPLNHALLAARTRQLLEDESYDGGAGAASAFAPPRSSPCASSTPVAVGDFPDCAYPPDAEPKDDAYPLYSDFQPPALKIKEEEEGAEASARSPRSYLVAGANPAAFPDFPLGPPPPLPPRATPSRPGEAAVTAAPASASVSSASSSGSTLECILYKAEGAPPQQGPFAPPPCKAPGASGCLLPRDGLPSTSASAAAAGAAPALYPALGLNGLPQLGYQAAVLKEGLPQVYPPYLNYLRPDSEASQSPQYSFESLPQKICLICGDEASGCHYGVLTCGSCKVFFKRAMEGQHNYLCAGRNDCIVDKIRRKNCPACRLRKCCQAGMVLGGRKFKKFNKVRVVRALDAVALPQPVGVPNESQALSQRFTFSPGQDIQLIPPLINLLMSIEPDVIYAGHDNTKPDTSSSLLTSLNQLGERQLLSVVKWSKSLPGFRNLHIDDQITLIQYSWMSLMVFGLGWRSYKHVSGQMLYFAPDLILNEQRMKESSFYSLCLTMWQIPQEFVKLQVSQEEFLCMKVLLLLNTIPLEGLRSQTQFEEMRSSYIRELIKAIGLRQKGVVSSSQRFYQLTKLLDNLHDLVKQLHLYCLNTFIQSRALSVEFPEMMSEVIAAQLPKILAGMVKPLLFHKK

[4] = target: Thyroid hormone receptor alpha (Homo sapiens) (UniProt P10827); experiment: Agonist activity at human THR-alpha expressed in CHO-K1 cells assessed as maximum relative efficacy at 100 uM by PathHunter assay relative to control; assay type: cell-based
Thyroid hormone receptor alpha (Homo sapiens), sequence (P10827 whole entry): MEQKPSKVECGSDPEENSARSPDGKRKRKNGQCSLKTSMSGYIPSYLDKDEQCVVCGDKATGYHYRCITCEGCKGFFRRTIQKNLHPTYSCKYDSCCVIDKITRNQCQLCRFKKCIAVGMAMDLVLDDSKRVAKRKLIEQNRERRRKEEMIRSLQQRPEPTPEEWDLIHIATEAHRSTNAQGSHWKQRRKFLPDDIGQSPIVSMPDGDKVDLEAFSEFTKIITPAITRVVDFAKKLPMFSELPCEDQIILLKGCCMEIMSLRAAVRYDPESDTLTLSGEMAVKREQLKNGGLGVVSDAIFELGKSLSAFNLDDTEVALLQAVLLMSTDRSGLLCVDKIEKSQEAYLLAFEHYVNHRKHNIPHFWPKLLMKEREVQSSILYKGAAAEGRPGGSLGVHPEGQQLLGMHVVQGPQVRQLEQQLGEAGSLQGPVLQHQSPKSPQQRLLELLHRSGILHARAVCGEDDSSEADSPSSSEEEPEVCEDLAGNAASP

[5] = target: Glucocorticoid receptor (Homo sapiens) (UniProt P04150); experiment: Agonist activity at human GR expressed in CHO-K1 cells assessed as maximum relative efficacy at 100 uM by PathHunter assay relative to dexamethasone; assay type: cell-based
[6] = target: Thyroid hormone receptor beta (Homo sapiens) (UniProt P10828); experiment: Agonist activity at human THR-beta expressed in CHO-K1 cells assessed as maximum relative efficacy at 100 uM by PathHunter assay relative to triiodothyronine ine; assay type: cell-based
[7] = target: Peroxisome proliferator-activated receptor delta (Homo sapiens) (UniProt Q03181); experiment: Agonist activity at human PPAR-delta expressed in CHO-K1 cells assessed as maximum relative efficacy at 100 uM by PathHunter assay relative to L-165,041; assay type: cell-based
Peroxisome proliferator-activated receptor delta (Homo sapiens), sequence (Q03181 whole entry): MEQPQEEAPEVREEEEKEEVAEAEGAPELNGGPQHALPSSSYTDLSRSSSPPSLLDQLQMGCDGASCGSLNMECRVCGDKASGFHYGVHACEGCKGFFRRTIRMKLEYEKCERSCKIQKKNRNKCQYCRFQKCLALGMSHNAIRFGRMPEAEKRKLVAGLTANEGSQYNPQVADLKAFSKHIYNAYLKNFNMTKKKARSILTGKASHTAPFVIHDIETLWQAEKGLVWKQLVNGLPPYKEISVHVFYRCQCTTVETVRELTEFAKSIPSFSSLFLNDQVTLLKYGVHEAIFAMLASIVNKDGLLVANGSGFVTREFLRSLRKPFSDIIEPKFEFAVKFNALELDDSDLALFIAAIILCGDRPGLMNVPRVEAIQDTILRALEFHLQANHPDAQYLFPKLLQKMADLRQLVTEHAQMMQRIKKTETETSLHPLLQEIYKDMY

[8] = target: Progesterone receptor (Homo sapiens) (UniProt P06401); experiment: Agonist activity at human PR-alpha expressed in U2OS cells assessed as maximum relative efficacy at 100 uM by PathHunter assay relative to norgestrel; assay type: cell-based
[9] = target: Androgen receptor (Homo sapiens) (UniProt P10275); experiment: Agonist activity at human AR expressed in CHO-K1 cells assessed as maximum relative efficacy at 100 uM by PathHunter assay relative to 6alpha-fluorotestosterone; assay type: cell-based
[10] = target: Retinoic acid receptor RXR-beta (Homo sapiens) (UniProt P28702); experiment: Agonist activity at human RXR-beta expressed in U2OS cells assessed as maximum relative efficacy at 100 uM by PathHunter assay relative to 9-cis-retinoic acid; assay type: cell-based
[11] = target: Oxysterols receptor LXR-alpha (Homo sapiens) (UniProt Q13133); experiment: Agonist activity at human LXR-alpha expressed in CHO-K1 cells assessed as maximum relative efficacy at 100 uM by PathHunter assay relative to TO901317; assay type: cell-based
Oxysterols receptor LXR-alpha (Homo sapiens), sequence (Q13133 whole entry): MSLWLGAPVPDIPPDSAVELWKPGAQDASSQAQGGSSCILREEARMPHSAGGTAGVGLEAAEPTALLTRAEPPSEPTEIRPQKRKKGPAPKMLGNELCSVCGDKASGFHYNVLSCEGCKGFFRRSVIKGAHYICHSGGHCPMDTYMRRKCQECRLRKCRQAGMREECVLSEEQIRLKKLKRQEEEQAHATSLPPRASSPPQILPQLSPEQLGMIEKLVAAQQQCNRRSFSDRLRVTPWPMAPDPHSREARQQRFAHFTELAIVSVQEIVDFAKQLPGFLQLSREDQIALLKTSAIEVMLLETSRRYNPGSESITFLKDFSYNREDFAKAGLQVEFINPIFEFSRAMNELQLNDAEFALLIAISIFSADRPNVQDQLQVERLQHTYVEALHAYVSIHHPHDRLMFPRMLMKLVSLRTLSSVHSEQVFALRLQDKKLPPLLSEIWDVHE

[12] = target: Peroxisome proliferator-activated receptor gamma (Homo sapiens) (UniProt P37231); experiment: Agonist activity at human PPAR-gamma expressed in CHO-K1 cells assessed as maximum relative efficacy at 100 uM by PathHunter assay relative to troglitazone; assay type: cell-based
Peroxisome proliferator-activated receptor gamma (Homo sapiens), sequence (P37231 whole entry): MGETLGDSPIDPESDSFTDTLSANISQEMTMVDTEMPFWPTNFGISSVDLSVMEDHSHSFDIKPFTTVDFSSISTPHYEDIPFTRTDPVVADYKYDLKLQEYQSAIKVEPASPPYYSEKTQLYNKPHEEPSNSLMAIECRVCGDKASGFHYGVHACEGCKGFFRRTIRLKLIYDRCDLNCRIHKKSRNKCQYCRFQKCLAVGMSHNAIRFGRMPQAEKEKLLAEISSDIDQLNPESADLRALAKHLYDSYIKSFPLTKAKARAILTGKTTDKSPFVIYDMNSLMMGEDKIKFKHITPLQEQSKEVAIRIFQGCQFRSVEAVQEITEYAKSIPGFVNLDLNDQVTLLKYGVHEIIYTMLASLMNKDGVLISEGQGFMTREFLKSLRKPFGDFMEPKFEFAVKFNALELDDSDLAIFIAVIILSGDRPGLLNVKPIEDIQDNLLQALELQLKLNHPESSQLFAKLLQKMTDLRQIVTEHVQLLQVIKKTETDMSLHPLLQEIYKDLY

[13] = target: Oxysterols receptor LXR-beta (Homo sapiens) (UniProt P55055); experiment: Agonist activity at human LXR-beta expressed in CHO-K1 cells assessed as maximum relative efficacy at 100 uM by PathHunter assay relative to TO901317; assay type: cell-based
[14] = target: Retinoic acid receptor beta (Homo sapiens) (UniProt P10826); experiment: Agonist activity at human RAR-beta expressed in CHO-K1 cells assessed as maximum relative efficacy at 100 uM by PathHunter assay relative to 9-cis-retinoic acid; assay type: cell-based
Retinoic acid receptor beta (Homo sapiens), sequence (P10826 whole entry): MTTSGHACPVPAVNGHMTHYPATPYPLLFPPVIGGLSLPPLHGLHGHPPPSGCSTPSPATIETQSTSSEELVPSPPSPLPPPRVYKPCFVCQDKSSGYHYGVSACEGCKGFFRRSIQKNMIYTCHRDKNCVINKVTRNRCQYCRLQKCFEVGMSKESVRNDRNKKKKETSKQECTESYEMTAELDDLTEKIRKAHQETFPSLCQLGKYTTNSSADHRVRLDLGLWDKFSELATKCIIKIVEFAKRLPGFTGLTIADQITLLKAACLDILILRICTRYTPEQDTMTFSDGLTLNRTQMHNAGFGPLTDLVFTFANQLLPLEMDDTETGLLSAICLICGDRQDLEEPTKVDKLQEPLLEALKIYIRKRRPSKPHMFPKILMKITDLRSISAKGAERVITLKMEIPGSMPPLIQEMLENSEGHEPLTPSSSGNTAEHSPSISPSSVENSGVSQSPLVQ

[15] = target: Estrogen receptor (Homo sapiens) (UniProt P03372); experiment: Agonist activity at human ERalpha expressed in CHO-K1 cells assessed as maximum relative efficacy at 100 uM by PathHunter assay relative to 17-beta-estradiol; assay type: cell-based
Estrogen receptor (Homo sapiens), sequence (P03372 whole entry): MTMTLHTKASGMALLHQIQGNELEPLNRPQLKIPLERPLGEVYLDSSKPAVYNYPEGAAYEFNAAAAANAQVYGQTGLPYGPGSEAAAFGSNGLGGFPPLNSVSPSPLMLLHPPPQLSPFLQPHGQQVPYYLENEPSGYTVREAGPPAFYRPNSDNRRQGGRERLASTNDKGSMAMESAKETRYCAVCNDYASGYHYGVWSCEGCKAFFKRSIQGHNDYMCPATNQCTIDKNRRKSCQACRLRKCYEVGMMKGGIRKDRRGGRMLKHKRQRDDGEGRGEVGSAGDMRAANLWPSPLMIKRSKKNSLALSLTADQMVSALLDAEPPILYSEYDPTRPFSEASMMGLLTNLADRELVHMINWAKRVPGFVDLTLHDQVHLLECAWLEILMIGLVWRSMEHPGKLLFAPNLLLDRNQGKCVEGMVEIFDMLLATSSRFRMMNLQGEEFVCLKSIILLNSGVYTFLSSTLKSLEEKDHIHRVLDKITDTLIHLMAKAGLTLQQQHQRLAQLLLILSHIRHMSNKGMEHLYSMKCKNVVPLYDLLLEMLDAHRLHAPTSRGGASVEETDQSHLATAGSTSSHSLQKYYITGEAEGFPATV

[16] = target: Peroxisome proliferator-activated receptor alpha (Homo sapiens) (UniProt Q07869); experiment: Agonist activity at human PPAR-alpha expressed in CHO-K1 cells assessed as maximum relative efficacy at 100 uM by PathHunter assay relative to GW7647; assay type: cell-based
Peroxisome proliferator-activated receptor alpha (Homo sapiens), sequence (Q07869 whole entry): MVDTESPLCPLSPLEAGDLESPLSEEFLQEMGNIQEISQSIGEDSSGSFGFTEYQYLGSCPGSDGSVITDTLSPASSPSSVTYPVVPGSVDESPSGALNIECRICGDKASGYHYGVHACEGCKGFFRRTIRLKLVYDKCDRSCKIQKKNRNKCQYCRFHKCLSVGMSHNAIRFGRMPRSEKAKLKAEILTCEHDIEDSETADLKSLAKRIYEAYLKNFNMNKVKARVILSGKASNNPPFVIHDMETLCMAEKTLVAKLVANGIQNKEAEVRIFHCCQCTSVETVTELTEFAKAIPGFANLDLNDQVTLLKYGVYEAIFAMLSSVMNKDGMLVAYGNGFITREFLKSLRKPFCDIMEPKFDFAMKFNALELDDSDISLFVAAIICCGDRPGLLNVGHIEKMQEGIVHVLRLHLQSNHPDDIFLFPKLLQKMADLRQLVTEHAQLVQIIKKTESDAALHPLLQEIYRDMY

[17] = target: Mineralocorticoid receptor (Homo sapiens) (UniProt P08235); experiment: Agonist activity at human MR expressed in CHO-K1 cells assessed as maximum relative efficacy at 100 uM by PathHunter assay relative to aldosterone; assay type: cell-based
[18] = target: T1, Bile acid receptor (Mus musculus) (UniProt Q60641); experiment: In vivo activation of FXR in CDAHFD-induced nonalcoholic steatohepatitis C57BL/6J mouse model assessed as induction of IBABP gene expression at 80 mg/kg, po administered daily for 4 weeks; assay type: functional, organism-based
T1 sequence (whole entry): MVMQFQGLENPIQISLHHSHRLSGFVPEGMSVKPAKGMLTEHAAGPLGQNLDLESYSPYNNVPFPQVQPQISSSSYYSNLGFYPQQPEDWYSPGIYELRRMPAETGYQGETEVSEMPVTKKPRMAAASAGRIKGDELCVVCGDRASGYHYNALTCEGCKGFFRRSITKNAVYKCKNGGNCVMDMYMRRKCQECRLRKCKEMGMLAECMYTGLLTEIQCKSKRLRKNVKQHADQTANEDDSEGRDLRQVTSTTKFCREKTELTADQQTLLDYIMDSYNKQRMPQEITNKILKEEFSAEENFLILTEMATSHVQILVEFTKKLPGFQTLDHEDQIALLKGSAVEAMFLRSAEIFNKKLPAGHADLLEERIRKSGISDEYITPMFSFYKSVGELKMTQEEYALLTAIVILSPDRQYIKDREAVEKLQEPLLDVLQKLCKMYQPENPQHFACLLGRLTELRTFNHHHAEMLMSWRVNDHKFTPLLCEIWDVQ

[19] = target: T1, Bile acid receptor (Mus musculus); experiment: In vivo activation of FXR in […]-induced nonalcoholic steatohepatitis C57BL/6J mouse model assessed as improved glucose tolerance measured up to 120 mins by glucose tolerance test; assay type: functional
[20] = Toxicity in CDAHFD-induced nonalcoholic steatohepatitis C57BL/6J mouse model assessed as increase in liver wet weight at 80 mg/kg, po administered daily for 4 weeks […]; assay type: organism-based; details: in vivo, 672 h
[21] = target: T1, Bile acid receptor (Mus musculus); experiment: In vivo activation of FXR in CDAHFD-induced nonalcoholic steatohepatitis C57BL/6J mouse model assessed as induction of FGF15 gene expression at 80 mg/kg, po administered daily for 4 weeks; assay type: functional, organism-based
[22] = target: T1, Bile acid receptor (Mus musculus); experiment: In vivo activation of FXR in CDAHFD-induced nonalcoholic steatohepatitis C57BL/6J mouse model assessed as reduction in liver fibrosis at 80 mg/kg, po administered daily for 4 weeks by picrosirius red staining method; assay type: functional, organism-based
[23] = target: T1, Bile acid receptor (Mus musculus); experiment: In vivo activation of FXR in CDAHFD-induced nonalcoholic steatohepatitis C57BL/6J mouse model assessed as induction of SHP gene expression at 80 mg/kg, po administered daily for 4 weeks; assay type: functional, organism-based
[24] = target: T1, Bile acid receptor (Mus musculus); experiment: In vivo activation of FXR in CDAHFD-induced nonalcoholic steatohepatitis C57BL/6J mouse model assessed as induction of SHP gene expression in liver at 80 mg/kg, po administered daily for 4 weeks; assay type: functional, organism-based
[25] = Toxicity in CDAHFD-induced nonalcoholic steatohepatitis C57BL/6J mouse model assessed as change in body weight at 80 mg/kg, po administered daily for 4 weeks; assay type: organism-based; details: in vivo, 672 h
[26] = target: T1, Bile acid receptor (Mus musculus); experiment: In vivo activation of FXR in CDAHFD-induced nonalcoholic steatohepatitis C57BL/6J mouse model assessed as induction of OST-alpha gene expression at 80 mg/kg, po administered daily for 4 weeks; assay type: functional, organism-based
[27] = Toxicity in CDAHFD-induced nonalcoholic steatohepatitis C57BL/6J mouse model assessed as change in amount of food intake at 80 mg/kg, po administered daily for 4 weeks; assay type: organism-based; details: in vivo, 672 h
[28] = target: T2, Bile acid receptor (Homo sapiens) (UniProt Q96RI1); experiment: Antagonist activity at human FXR expressed in CHO-K1 FXR cells coexpressed with beta-galactosidase at 3.3 uM preincubated for 60 mins followed by GW4064 addition and measured after 3 to 16 hrs by PathHunter chemiluminescence based assay relative to control; assay type: cell-based; parameters: scale not given: the % may be the effect or the level left; details: time 4-17 hrs
T2 sequence (whole entry): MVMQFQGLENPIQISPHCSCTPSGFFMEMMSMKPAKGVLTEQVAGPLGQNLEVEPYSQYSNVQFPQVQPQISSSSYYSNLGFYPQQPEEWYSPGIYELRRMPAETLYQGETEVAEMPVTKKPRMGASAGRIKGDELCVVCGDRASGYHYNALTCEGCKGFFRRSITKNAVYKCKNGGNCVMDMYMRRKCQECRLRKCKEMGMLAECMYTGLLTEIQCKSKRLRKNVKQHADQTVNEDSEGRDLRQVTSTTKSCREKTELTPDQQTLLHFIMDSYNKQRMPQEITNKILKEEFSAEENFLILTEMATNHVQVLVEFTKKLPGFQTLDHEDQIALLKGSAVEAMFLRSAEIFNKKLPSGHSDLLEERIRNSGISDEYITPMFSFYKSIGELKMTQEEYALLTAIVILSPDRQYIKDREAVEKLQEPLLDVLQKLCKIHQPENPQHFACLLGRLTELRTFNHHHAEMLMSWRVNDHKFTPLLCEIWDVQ

[29] = target: T2, Bile acid receptor (Homo sapiens); experiment: Agonist activity at human FXR transfected in CHO-K1 cells coexpressed with beta-galactosidase at 10 uM incubated for 3 to 16 hrs by PathHunter chemiluminescence based assay relative to control; assay type: cell-based; details: time 3-16 hrs
[30] = Half life in Sprague-Dawley rat at 5 mg/kg, iv measured up to 24 hrs by HPLC analysis; assay type: ADME, organism-based; details: in vivo
[31] = AUClast in Sprague-Dawley rat at 5 mg/kg, iv measured up to 24 hrs by HPLC analysis; assay type: ADME, organism-based; parameters: time < 24 hrs, dose 5 mg/kg, route iv; details: Sprague-Dawley, in vivo
[32] = Stability in Sprague-Dawley rat plasma at 80 mg/kg, po measured after 3 hrs by RP-HPLC analysis; assay type: ADME, organism-based; details: in vivo
[33] = Volume of distribution at steady state in Sprague-Dawley rat at 5 mg/kg, iv measured up to 24 hrs by HPLC analysis; assay type: ADME, organism-based; details: in vivo, read-out: Vdss
[34] = Clearance in Sprague-Dawley rat at 5 mg/kg, iv measured up to 24 hrs by HPLC analysis; assay type: ADME, organism-based; details: in vivo
[35] = target: T2, Bile acid receptor (Homo sapiens); experiment: Antagonist activity at human FXR expressed in CHO-K1 FXR cells coexpressed with beta-galactosidase at 10 uM preincubated for 60 mins followed by GW4064 addition and measured after 3 to 16 hrs by PathHunter chemiluminescence based assay relative to control; assay type: cell-based; parameters: scale not given: the % may be the effect or the level left; details: time 4-17 hrs
[36] = target: T2, Bile acid receptor (Homo sapiens); experiment: Antagonist activity at human FXR expressed in CHO-K1 FXR cells coexpressed with beta-galactosidase at 1.1 uM preincubated for 60 mins followed by GW4064 addition and measured after 3 to 16 hrs by PathHunter chemiluminescence based assay relative to control; assay type: cell-based; parameters: scale not given: the % may be the effect or the level left; details: time 4-17 hrs
Bile acid receptor = target: T3, Bile acid receptor (Homo sapiens, UniProt Q96RI1)
T3 sequence (Q96RI1 whole entry): T2 sequence (whole entry)
Description: Agonist activity at human FXR transfected in CHO-K1 cells coexpressed with beta-galactosidase incubated for 3 to 16 hrs by PathHunter chemiluminescence based assay

COC(=O)/C=C/c1cccc(N(Cc2ccc(-c3ccc(N(C)C)cc3)c(C#N)c2)C(=O)C2CCCCC2)c1
Emax [1]: -2%
Emax [2]: -3%
Emax [3]: 0%
Emax [4]: -1%
Emax [5]: 0%
Emax [6]: 1%
Emax [7]: -3%
Emax [8]: -1%
Emax [9]: -2%
Emax [10]: -4%
Emax [11]: 0%
Emax [12]: 2%
Emax [13]: 3%
Emax [14]: -11%
Emax [15]: 1%
Emax [16]: 0%
Emax [17]: 0%

COC(=O)/C=C/c1cccc(N(Cc2ccc(-c3ccc(N(C)C)cc3)cc2)C(=O)C2CCCCC2)c1 [FEXARAMINE]
Activity [18]: Active
Activity [19]: Active
Activity [20]: Non-Toxic
Activity [21]: Active
Activity [22]: Active
Activity [23]: Active
Activity [24]: Active
Activity [25]: Non-Toxic
Activity [26]: Active
Activity [27]: Non-Toxic

CN(C)c1ccc(-c2ccc(CN(C(=O)C3CCCCC3)c3cc(F)cc(/C=C/C(=O)O)c3)cc2C#N)cc1
Activity [28]: 7%
Activity [29]: 0%
half-life [30]: 14.4 min
AUC(0-t) at 24 h [31]: 1200 ng·h/mL
Stability [32]: Unstable
Vd [33]: 1.4 L/kg
clearance [34]: 70 mL/min/kg
Activity [35]: 26%
Activity [36]: 6%

COC(=O)/C=C/c1cccc(N(Cc2ccc3c(c2)CCc2cc(N(C)C)ccc2-3)C(=O)C2CCCCC2)c1
EC50 (Bile acid receptor): > 10 µM

COC(=O)/C=C/c1cccc(N(Cc2ccc3c(ccc4cc(N(C)C)ccc43)c2)C(=O)C2CCCCC2)c1
EC50 (Bile acid receptor): > 10 µM

COc1cccc(Cn2cc(C(=O)Nc3ccc(C)c(S(=O)(=O)N4CCOCC4)c3)c(-c3ccc(C)cc3)n2)c1
Activity ([35]; filed as antagonist): 96%

CN(C)c1ccc(-c2ccc(CN(C(=O)C3CCCCC3)c3cccc(/C=C/C(=O)OCF)c3)cc2C#N)cc1
EC50 (Bile acid receptor): 2.6 µM

CC(C)OC(=O)/C=C/c1cccc(N(Cc2ccc(-c3ccc(N(C)C)cc3)c(C#N)c2)C(=O)C2CCCCC2)c1F
EC50 (Bile acid receptor): 0.9 µM
